According to publication PMC8899516, “Structure-Activity Relationship Studies of 4-((4-(2-fluorophenyl)piperazin-1-yl)methyl)-6-imino-N-(naphthalen-2-yl)-1,3,5-triazin-2-amine (FPMINT) Analogues as Inhibitors of Human Equilibrative Nucleoside Transporters” (Frontiers in Pharmacology, 2022):

How the values were obtained:
PK15NTD/ENT1 cells = assay: Cell membrane integrity, LDH release; type: cell-based, porcine; conditions: 50 µM, 24 or 48 h
Experimental: (§1) PK15NTD/ENT1 and PK15NTD/ENT2 cells were seeded onto 96-well plates until they reached 80–90% confluent. The cells were then treated with different concentrations of compound 3c or an equivalent volume of a vehicle (0.5% dimethyl sulfoxide (DMSO), as a control) in a serum-free medium for another 24 or 48 h. For measuring cell membrane integrity, the lactate dehydrogenase (LDH) released into the culture medium was measured with a detection kit (Abcam, Cambridge, UK) according to the manufacturer’s instructions. The absorbance at 490 nm was measured with a microplate absorbance reader. For measuring cell viability, 0.5 mg/ml methylthiazolyldiphenyl-tetrazolium bromide (MTT) was added to each well. […] The absorbance was measured at 560 nm, with the absorbance at 655 nm serving as the background.
(§2) FIGURE 5 Effects of compound 3c on cytotoxicity and protein expressions of ENT1 and ENT2. Cytotoxicity of compound 3c was measured after 24 h or 48 h treatment of PK15NTD/ENT1 and PK15NTD/ENT2 cells with various concentrations of compound 3c (0.5, 5 and 50 μM) or a vehicle (0.5% DMSO, as a control) (A) The cell viability and (B) cell membrane integrity were determined by the MTT assay and LDH release, respectively (C) PK15NTD/ENT1 and (D) PK15NTD/ENT2 cells were incubated with 50 μM of compound 3c or a vehicle (0.5% DMSO, as a control) for 24 or 48 h. […]

PK15NTD/ENT2 cells = assay: Cell membrane integrity, LDH release; type: cell-based, porcine; conditions: 50 µM, 24 or 48 h
Experimental: as §1, §2

ENT2 = assay: Cell surface biotinylation and internalization assay; type: cell-based, human; conditions: 50 µM, 24 h or 48 h, PK15NTD cells
Experimental: (§3) To label all surface proteins, after washing with ice-cold PBS, PK15NTD/ENT1 and PK15NTD/ENT2 cells were incubated with sulfo-NHS-SS-biotin (300 μg/ml) for 30 min at 4°C to biotinylate cell surface proteins. The unbound biotin was washed away by PBS containing 0.1% BSA at 4°C. The biotinylated cells were then incubated with the original growth media with or without 50 µM compound 3c and returned to the 5% CO2 incubator at 37 °C for 24 h or 48 h for transporter internalization. Transporter trafficking was stopped by rapidly cooling the cells at 4°C. […]
(§4) FIGURE 5 Effects of compound 3c on cytotoxicity and protein expressions of ENT1 and ENT2. Cytotoxicity of compound 3c was measured after 24 h or 48 h treatment of PK15NTD/ENT1 and PK15NTD/ENT2 cells with various concentrations of compound 3c (0.5, 5 and 50 μM) or a vehicle (0.5% DMSO, as a control) (A) The cell viability and (B) cell membrane integrity were determined by the MTT assay and LDH release, respectively (C) PK15NTD/ENT1 and (D) PK15NTD/ENT2 cells were incubated with 50 μM of compound 3c or a vehicle (0.5% DMSO, as a control) for 24 or 48 h. […] After cleavage of extracellular biotin, internalized biotinylated proteins were precipitated with immobilized streptavidin beads and detected with an anti-ENT1 and anti-ENT2 antibodies by western blotting. […]

ENT1 = assay: as above; type: cell-based, human; conditions: 50 µM, 24 h or 48 h, PK15NTD cells
Experimental: as §3, §4

**Q.** For `Cc1cccc(Nc2nc(N)nc(CN3CCN(c4ccc(F)cc4)CC3)n2)c1` [Compound 3c], which cell membrane integrity (PK15NTD/ENT1 cells) is on record?
**A.** Its cell membrane integrity is “No significant changes”.

**Q.** What about the cell membrane integrity (PK15NTD/ENT2 cells) of the same compound?
**A.** The cell membrane integrity was “No significant changes”.

**Q.** And the “location of biotinylated ENT2 (internalization)” value (ENT2)?
**A.** The value was “exclusively found at the plasma membrane”.

**Q.** What about the “location of biotinylated ENT1 (internalization)” value (ENT1) of the same compound?
**A.** The value was “exclusively found at the plasma membrane”.
